Key:
Assay type in all cases: in vivo
geranium young plants = assay: Dwarfing test of geranium young plant; settings: for Plant Height / Dwarfing Rate: 100 ml per pot on 3rd day, measured 44th day; for Dwarfing Rate: vs comparative group
Description: Dwarfing rate (%)=[(the plant height of the comparative group)−(the plant height of an addition group)/the plant height of the comparative group]×100 In addition, “plant height” in all the tables below was an average of heights from a surface of the soil of a pot used in each test to a head portion of the plant. 160 g of cinnamic acid, 80 g of dispersant (lignin sulfonic sodium) and 293 g of water were mixed, 1,800 g of glass beads (with diameters of 1 to 1.25 mm) were further added, the resultant was added into a vessel of a dispersion apparatus (RM test sand mill with six parallel barrels) and underwent dispersion processing at 120 rpm for three hours, and 30% cinnamic acid dispersion (with the average diameter of cinnamic acid of 0.3 μm) was prepared. The dispersion was diluted with distilled water 300 times or 3,000 times, and thus 0.1% cinnamic acid dispersion and 0.01% cinnamic acid dispersion were prepared, respectively. 30 pots of geranium young plants each with 10 to 12 leaves and a height of 7 cm ware purchased, and placed in a built-up indoor aluminum greenhouse (440×840×1500 mm) at 25° C. On the 3rd day, the cinnamic dispersions as described above were added to the geranium pots. Among 30 pots, 10 pots were prepared as a 0.01% cinnamic acid dispersion addition group, and 100 ml of the 0.01% cinnamic acid dispersion was added to the nursery soil of each pot. Another 10 pots were prepared as a 0.1% cinnamic acid dispersion addition group, and 100 ml of the 0.1% cinnamic acid dispersion was added to the nursery soil of each pot. Remaining 10 pots were prepared as a comparative group, and instead of the cinnamic dispersion, 100 ml of water was added to each pot. Then, the cultivation was continued on the pots in each group under general conditions. The cultivation was continued on geraniums of the pots in each group, and on the 24th day, geraniums in each group started blooming. The cultivation was further continued. On the 44th day after the placement, heights of geraniums of pots in each group were measured, the dwarfing rate (%) was calculated, and the dwarfing effect of cinnamic acid dispersion on geranium young plants was examined. From the results in Table 2, it became evident that the cinnamic acid dispersions are effective in dwarfing geranium young plants.

cabbage young plants = assay: Dwarfing test of cabbage young plant; settings: for Plant Height / Dwarfing Rate: 5 ml per cell on 4th day, measured 22nd day; for Dwarfing Rate: vs comparative group
Procedure: Dwarfing rate (%)=[(the plant height of the comparative group)−(the plant height of an addition group)/the plant height of the comparative group]×100
18.4 g of potassium hydroxide was dissolved in 400 ml of distilled water at 20° C., 50 g of cinnamic acid was added to the potassium hydroxide solution and dissolved by stirring, the resultant solution was diluted with distilled water until the total volume of solution was 500 ml, and thus 10% cinnamic acid aqueous solution (pH 8.8) was prepared. The aqueous solution was further diluted with distilled water 100 times or 33.3 times, and 0.1% cinnamic acid aqueous solution and 0.3% cinnamic acid aqueous solution were prepared, respectively.
Nursery soil for house use was filled into the same polyethylene joint pot as described above, water was sufficiently given to the soil, and seeds of cabbage were sowed. After seeding, the pot was placed in the same greenhouse as described above to sprout. Subsequently, on the 4th day, the cinnamic acid aqueous solutions were added to the nursery soil in the joint pot. Among 36 cells, 12 cells were prepared as a 0.1% cinnamic acid aqueous solution addition group, and 5 ml of the 0.1% cinnamic acid aqueous solution in Example 3 was added to the nursery soil of each cell. Another 12 cells were prepared as 0.3% cinnamic acid aqueous solution addition group, and 5 ml of the 0.3% cinnamic acid aqueous solution in Example 3 was added to the nursery soil of each cell. Remaining 12 cells were prepared as a comparative group in which 5 ml of water is added to each cell, instead of the cinnamic acid aqueous solution. Subsequently, the cultivation of cabbage young plants in each group was continued under general conditions. On the 22nd day, the heights of young plants in each group were measured, the dwarfing rate (%) was calculated, and the dwarfing effect of cinnamic acid aqueous solution on cabbage young plants was examined.

onion young plants = assay: Dwarfing test of onion young plant; settings: for Plant Height / Dwarfing Rate: 5 ml per cell on 5th day, measured 27th day; for Dwarfing Rate: vs comparative group
Procedure: (§1) 50 g of sodium tripolyphosphate was dissolved in 400 ml of distilled water at 80° C., 17.5 g of cinnamic acid was added to the sodium tripolyphosphate solution and dissolved by stirring, the resultant solution was diluted with distilled water until the total volume of solution was 500 ml, and thus 3.5% cinnamic acid aqueous solution (pH 6.5) was prepared. The aqueous solution was further diluted with distilled water 70 times or 17.5 times, and 0.05% cinnamic acid aqueous solution and 0.2% cinnamic acid aqueous solution were prepared, respectively.
(§2) Nursery soil for house use was filled into paper joint pots (each with 24 cells: 34×43×50 mm/cell), water was sufficiently given to the soil, and seeds of carrots were sowed. After seeding, the pot was placed in the same greenhouse as described above to sprout. Subsequently, on the 5th day, the cinnamic aqueous acid solutions were added to the nursery soil in the joint pots. One of the joint pots (24 cells) was prepared as a 0.05% cinnamic acid aqueous solution addition group, and 5 ml of the 0.05% cinnamic acid aqueous solution was added to the nursery soil of each cell. Another one of the join pots was prepared as a 0.2% cinnamic acid aqueous solution addition group, and 5 ml of the 0.2% cinnamic acid aqueous solution was added to the nursery soil of each cell. The other one of the joint pots was prepared as a comparative group in which 5 ml of water is added to each cell, instead of the cinnamic acid aqueous solution. Subsequently, the cultivation of carrot young plants in each group was continued under general conditions. On the 27th day, the heights of young plants in each group were measured, the dwarfing rate (%) was calculated, and the dwarfing effect of cinnamic acid aqueous solution on carrot young plants was examined. […].
In the same way as in Example 5 except that seeds of onion were sowed, the dwarfing effect of cinnamic acid aqueous solution on onion young plants was examined. […]

broccoli young plants = assay: Dwarfing test of broccoli young plant; settings: for Plant Height / Dwarfing Rate: 5 ml per cell on 4th day, measured 20th day; for Dwarfing Rate: vs comparative group
Procedure: as §1, §2
In the same way as in Example 12 except that seeds of broccoli were sowed, the dwarfing effect of cinnamic acid aqueous solution on broccoli young plants was examined. […]

burdock young plants = assay: Dwarfing test of burdock young plant; settings: for Plant Height / Dwarfing Rate: 5 ml per cell on 4th day, measured 20th day; for Dwarfing Rate: vs comparative group
Procedure: as §1, §2
In the same way as in Example 12 except that seeds of burdock were sowed, the dwarfing effect of cinnamic acid aqueous solution on burdock young plants was examined. […]

Compound: O=C(O)C=Cc1ccccc1 [cinnamic acid]
- Plant Height (geranium young plants; 0.01% dispersion): 13.5 cm
- Dwarfing Rate (geranium young plants; 0.01% dispersion): 12.9%
- Plant Height (geranium young plants; 0.1% dispersion): 6.1 cm
- Dwarfing Rate (geranium young plants; 0.1% dispersion): 60.6%
- dwarfing effect (geranium young plants; geranium young plants, 0.01% and 0.1% dispersions): effective
- Plant Height (cabbage young plants; 0.1% aqueous solution): 7.9 cm
- Dwarfing Rate (cabbage young plants; 0.1% aqueous solution): 14.1%
- Plant Height (cabbage young plants; 0.3% aqueous solution): 6.1 cm
- Dwarfing Rate (cabbage young plants; 0.3% aqueous solution): 33.7%
- dwarfing effect (cabbage young plants; cabbage young plants, 0.1% and 0.3% aqueous solutions): effective
- Plant Height (onion young plants; 0.05% aqueous solution): 8.0 cm
- Dwarfing Rate (onion young plants; 0.05% aqueous solution): 15.8%
- Plant Height (onion young plants; 0.2% aqueous solution): 7.5 cm
- Dwarfing Rate (onion young plants; 0.2% aqueous solution): 21.1%
- dwarfing effect (onion young plants; onion young plants, 0.05% and 0.2% aqueous solutions): effective
- Plant Height (broccoli young plants; 0.05% aqueous solution): 8.8 cm
- Dwarfing Rate (broccoli young plants; 0.05% aqueous solution): 6.4%
- Plant Height (broccoli young plants; 0.2% aqueous solution): 6.4 cm
- Dwarfing Rate (broccoli young plants; 0.2% aqueous solution): 31.9%
- dwarfing effect (broccoli young plants; broccoli young plants, 0.05% and 0.2% aqueous solutions): effective
- Plant Height (burdock young plants; 0.05% aqueous solution): 4.9 cm
- Dwarfing Rate (burdock young plants; 0.05% aqueous solution): 21.0%
- Plant Height (burdock young plants; 0.2% aqueous solution): 4.3 cm
- Dwarfing Rate (burdock young plants; 0.2% aqueous solution): 30.6%
- dwarfing effect (burdock young plants; burdock young plants, 0.05% and 0.2% aqueous solutions): effective

From US20040200144A1, “Plant growth regulator and a method of producing the regulator” (Dainichiseika Color & Chemicals Mfg. Co., Ltd., priority 2003, published 2004)
